This is an account of results in US7109175B1, “Specific steady-state R-type CA2+ channel blockers and use thereof” (Universite de Sherbrooke, priority 2000, dated 2006).

The test system of one series is R-type Ca^2+ channel. The series can be described thus: Ca2+ channel blockers tested on the R-type channel (data not shown). The series is classed as cell-based.
Series [1] relates to writhing response in mice. The series can be described thus: Writhing response in mice (acetic acid, acetylcholine, kaolin). The class given is in vivo. To be noted: i.p., mice; for ID50 ACETYLCHOLINE: acetylcholine-induced writhes; for ID50 KAOLIN: kaolin-induced writhes. The source says: The antinociceptive actions of compound MV 8612 and MV 8608 were investigated in different models of nociception in mice as reported previously (Vaz et al., 1996, J. Pharmacol. Exp. Ther. 278:304–312).
(In general: In writhing tests, fewer writhes than in controls are read as antinociception.)

The subject of a further series is tail-flick. As to the kind of experiment: Tail-flick in mice. The class given is in vivo. The conditions noted are these: i.p.
In the next series the test system is MG63 and FAOS-2. The series can be described thus: Spontaneous proliferation of human osteoblast cancer lines. The series is classed as cell-based. The conditions noted are these: 10^−8M.
In series [2] the test system is plasma ET-1, attacks of Raynaud's phenomenon. To be noted: patients, La Civita et al. 1996; cited from earlier work.
The subject of series [3] is circulating ET-1, blood flow, hypertension.
For another series, the system named is anaesthetized rat. As to the kind of experiment: Anaesthetized rat, blood pressure and PAF hypotension. The series is classed as in vivo. The conditions noted are these: rat, results not shown. From the text: On the other hand, in vivo administered PAF, induced a marked hypotension in the anaesthetized rat and guinea pig.
For series [4], the system named is vasoconstriction, hypotension and airways hypereactivity induced by PAF, ET-1 and organ transplantation. The series can be described thus: In vivo tests in rats, rabbits and guinea pigs (summary). The conditions noted are these: rabbits, guinea pigs.
For the next series, the system named is L-type Ca^2+ channel. As to the kind of experiment: Isradipine on L-type channel (data not shown). The series is classed as cell-based. To be noted: read-out: ED50, block of L-type Ca2+ channel.

Entries after “also recorded” stand apart in the source; their conditions may differ.

Take `COc1ccc([C@@H]2Sc3cc(Cl)ccc3N(CCN(C)C)C(=O)[C@@H]2OC(C)=O)cc1` [Clentiazem]: the “block of R-type Ca2+ channel” value in the series with R-type Ca^2+ channel was “none were found to block the R-type Ca^2+”.

`COc1ccc(CCN(C)CCCC(C#N)(c2cc(OC)c(OC)c(OC)c2)C(C)C)cc1OC` (stereo not shown) [D600]: the “block of R-type Ca2+ channel” value in the series with R-type Ca^2+ channel was “none were found to block the R-type Ca^2+”.

`COc1cccc(CCN(C)CCCC(C#N)(c2ccc(OC)c(OC)c2)C(C)C)c1` (stereo not shown) [D888]: the “block of R-type Ca2+ channel” value in the series on R-type Ca^2+ channel is given as “none were found to block the R-type Ca^2+”.

As to `COc1ccc([C@@H]2Sc3ccccc3N(CCN(C)C)C(=O)[C@@H]2OC(C)=O)cc1` [Diltiazem], the “block of R-type Ca2+ channel” value in the series on R-type Ca^2+ channel was “none were found to block the R-type Ca^2+”.

`COc1ccc2c(c1)c(CC(=O)O)c(C)n2C(=O)c1ccc(Cl)cc1` [INDOMETHACIN, indomethacin, reference compound]: the “ID50 ACETIC ACID” value in [1] (acetic acid-induced writhes) is reported as 1.2 (0.9–1.4) μmol/kg. In series [1], the “ID50 ACETYLCHOLINE” value is recorded as 0.8 (0.5–1.0) μmol/kg and the “ID50 KAOLIN” value is given as 1.6 (1.4–1.8) μmol/kg.

As for `CN1CC[C@]23c4c5ccc(O)c4O[C@H]2[C@@H](O)C=C[C@H]3[C@H]1C5` [MORPHINE, morphine, reference compound], in series [1], the “ID50 ACETYLCHOLINE” value is recorded as 1.4 (1.0–1.8) μmol/kg and the “ID50 KAOLIN” value is on record as 1.4 (1.2–1.7) μmol/kg. The “ID50 TAIL-FLICK” value in the series on tail-flick is reported as 6.0(5.7–6.4) μmol/kg.

For `COc1ccc(CCN(C)CCCC(C#N)(c2ccc(OC)c(OC)c2)C(C)C)cc1OC` (stereo not shown) [Verapamil], the “block of R-type Ca2+ channel” value in the series on R-type Ca^2+ channel was “none were found to block the R-type Ca^2+”.

Consider `COC(=O)C1=C(C)NC(C)=C(C(=O)OC(C)C)C1c1cccc2nonc12` (stereo not shown) [isradipine], for which the spontaneous cell proliferation entry in the series with MG63 and FAOS-2 is on record as “reduced spontaneous cell proliferation”. Moreover, the “elevated plasma ET-1 level and frequency, severity of acute attacks of Raynaud's phenomenon” value in [2] was “significantly reduced”. The “hypertension and ET-1 plasma elevation associated with cyclosporin A (Sandimmune) treatment” value in series [3] (allograft transplant, listed as Lomir/Dynacirc) was “blocked hypertension and ET-1 plasma elevation; also recorded: blocks the elevated circulating endothelin level”. The “increase of circulating ET-1 and decrease of blood flow” value in [3] (organ transplants, rabbit, cyclosporin-A treated) is “restored ET-1 and blood flow levels”. Moreover, the intrinsic hypotensive effect entry in the series with anaesthetized rat is recorded as “marked intrinsic hypotensive properties”. Also, the “side effects in vivo” value in [4] was “exhibited significant side effects”. Besides, in the series with L-type Ca^2+ channel, the EC50 is ~1 µM.

In the case of `COC(=O)C1=C(C)NC(C)=C(C(=O)OC)C1c1ccccc1[N+](=O)[O-]` [nifedipine], the intrinsic hypotensive effect entry with anaesthetized rat was “marked intrinsic hypotensive properties”.
